Like-named read-outs stand apart in the source and are kept apart here.
Key:
[1] = system: DNA; conditions: cited from earlier work
[2] = system: cell membranes; conditions: not told; cited from earlier work
[3] = system: Bovine sperm
Excerpt: A sample cell was formed by two parallel glass slides coated with 1,500-2000 angstroms (Å) of indium tin oxide (ITO). The slides were separated by fragments of number zero glass cover slips, yielding a slide separation of 100 millimeters (mm).
The sample cell was connected to a resistor-capacitator (RC) circuit by alligator clips. A direct current (DC) power supply was used to charge a capacitor. When a switch was thrown, the discharging capacitor generated a time-dependant and spatially uniform electric field across the sample. An oscilloscope was used to monitor the voltage across the sample cell as a function of time.
The RC circuit formed by the sample cell and capacitor allowed for a well-controlled electric field to be generated. The resistance (R) of the circuit was left floating—that is, determined by the geometry and content of the sample cell. Typical R values ranged from 2-10,000 watts (W) depending primarily on the electrical conductivity of the buffer. The capacitance was varied from 0.1 millifarads (mF) to 1000 mF.
Bovine sperm that had been previously frozen were thawed for 60 seconds in a 96° F. water bath. Sperm were then centrifuged at 2,000 rotations per minute (rpm) for two minutes and the supernatant decanted. Sperm were then re-suspended with 0.35 M sucrose to partially dehydrate the sperm. The sperm solution was then incubated at 96° F. for 15 minutes and then transferred to the sample cell of the electroporation unit.
A voltage was applied to the capacitor circuit, and then the power supply was disconnected. A switch was then thrown and the capacitor discharged across the sample cell. These steps were carried out within 15 seconds of transferring the sperm to the sample cell to retain a random orientation of sperm with respect to the electric field. Electroporation was carried out on sperm in isotonic (0.25 M sucrose) and hypertonic (0.35 M sucrose) solutions. In each case, 10 V was applied to the capacitor and a time constant of 0.26 milliseconds (ms) measured.
A solution of 0.1 M sucrose and the DNA-specific dye, propidium iodide, was then injected into the sample cell. Fluorescence microscopy is used to image the sperm.
To distinguish fluorescent dead cells from fluorescent live cells, sperm motility was assessed.

Molecule | base selectivity (Applications) [1] | DNA affinity (Applications) [1] | permeability to cell membranes (Applications) [2] | other results
Cc1c2oc3c(C)c(N)cc(C(=O)N[C@@H]4C(=O)N[C@H](C(C)C)C(=O)N5CCC[C@H]5C(=O)N(C)CC(=O)N(C)[C@@H](C(C)C)C(=O)O[C@@H]4C)c3nc-2c(C(=O)N[C@@H]2C(=O)N[C@H](C(C)C)C(=O)N3CCC[C@H]3C(=O)N(C)CC(=O)N(C)[C@@H](C(C)C)C(=O)O[C@@H]2C)c(N)c1=O [7-AAD (7-amino-actinomycin D), 7-amino-actinomycin D] | GC-selective | – | – | –
COc1ccc2nc3cc(Cl)ccc3c(N)c2c1 [ACMA, 9-amino-6-chloro-2-methoxyactridine] | AT-selective | – | – | –
COc1ccc2nc3cc(Cl)ccc3c(NCCCNCCCCNCCCNc3c4ccc(Cl)cc4nc4ccc(OC)cc34)c2c1 [Acridine homodimer] | AT-selective | High-affinity DNA binding | Impermeant | –
N=C(N)c1ccc(-c2cc3ccc(C(=N)N)cc3[nH]2)cc1 [DAPI] | AT-selective | – | Semi-permeant | –
CN1CCN(c2ccc3nc(-c4ccc5nc(-c6ccc(N(C)C)cc6)[nH]c5c4)[nH]c3c2)CC1 [Hoechst 34580] | AT-selective | – | – | dsDNA selectivity (Applications) [1]: dsDNA-selective binding
CC[n+]1c(/C=C/C=C/c2ccc(N(C)C)cc2)ccc2cc(N(C)C)ccc21.[O-][Cl+3]([O-])([O-])[O-] [LDS 751] | – | – | Permeant | –
CC[N+](C)(CC)CCC[n+]1c(-c2ccccc2)c2cc(N)ccc2c2ccc(N)cc21.[I-].[I-] [propidium iodide] | – | – | Impermeant | increase in the number of damaged and non-motile sperm [3]: 68%; loss of motile sperm compared to the control [3]: 70%; motile and fluorescent sperm ([3]; control samples unexposed to electric fields): did not yield motile and fluorescent sperm; motile and fluorescent sperm ([3]; electroporated, 10 V, time constant 0.26 ms, hypertonic/hypotonic solution (0.35 M sucrose, then 0.1 M sucrose with dye)): motile and fluorescent sperm were observed; motile and fluorescent sperm ([3]; electroporated, 10 V, time constant 0.26 ms, isotonic solution (0.25 M sucrose)): motile and fluorescent sperm were observed; enhancement of the number of motile and fluorescent sperm ([3]; hypertonic/hypotonic solution compared with isotonic solution): approximately five-ten; fluorescence of observed motile sperm ([3]; hypertonic/hypotonic solution exposed to the electric field): displayed fluorescence
Ethidium homodimer-1 [Ethidium homodimer-1 (EthD-1)] | – | High-affinity DNA labeling | – | –
Ethidium homodimer-2 [Ethidium homodimer-2 (EthD-2)] | – | Very high-affinity DNA labeling | – | –
